Each structure is given as a SMILES string.

A short description of data set [1]: Toxicity against HIV cells. In kind it is cell-based. To be noted: human immunodeficiency virus 1.
Data set [2] deals with Human immunodeficiency virus 1. In words: Inhibition of HIV-cell fusion was determined at 10 uM by using cellular FIGS assay; Inactive. The class given is functional, organism-based.
Data set [3] concerns Human immunodeficiency virus 1. In words: Inhibition of HIV-specific CD4-gp120 interaction was determined using recombinant protein. The class given is functional.
A short description of data set [4]: Therapeutic index in C8166 cell lines was determined. In kind it is cell-based. To be noted: human, C8166 cells; read-out: TC50 (the source's name).
Data set [5] has as its system Human immunodeficiency virus 1. In words: Inhibition of HIV-cell fusion was determined by using cellular FIGS assay. In kind it is functional, organism-based.
Data set [6] relates to C8166. Description: Inhibition of HIV-1 IIIB infections in C8166 cell lines was determined; 4-8 uM. The class given is functional, cell-based. As to conditions: Homo sapiens; call rule not given here.
The subject of data set [7] is C8166. Description: Inhibition of HIV-1 IIIB infections in C8166 cell lines was determined; Range is 4-8 uM. The class given is functional, cell-based. To be noted: Homo sapiens.

Turning to `N=C(N)c1cccc(OCc2ccc(Br)cc2)c1`, the Activity in data set [1] is 100 µM. Also, the IC50 result in data set [2] is “Not Active”.

Regarding `N=C(N)c1cccc(Oc2ccccc2)c1`, the Activity in data set [1] stood at 100 µM. The 50% inhibitory concentration (IC50) entry in data set [2] is “Not Active”.

For the molecule `N=C(N)c1cccc(OCc2cccc([N+](=O)[O-])c2)c1`, in data set [1], the Activity came to 100 µM. For the same molecule, the IC50 entry in data set [2] is on record as “Not Active”.

Take `N=C(N)c1cccc(OCc2ccc(Cl)cc2)c1`: the Activity in data set [1] is 100 µM. Besides, the IC50 result in data set [2] is on record as “Not Active”.

With `Cl.N=C(N)Nc1cccc(OCc2ccccc2)c1`, the Inhibition in data set [3] was 5 mM. In addition, the CC50 in data set [4] amounted to 40 µM. This molecule also showed an IC50 in data set [5] of 131 µM. The same molecule gave an EC50 with C8166 [6] of 8 µM.

As to `Cl.N=C(N)Nc1cccc(Oc2ccccc2)c1`, the Inhibition in data set [3] was 5 mM. For the same molecule, in data set [4], the CC50 is 20 µM. The molecule further registered an IC50 in data set [5] of 167 µM. This molecule also gave an EC50 with C8166 [7] of 8 µM.

The molecule `N=C(N)Nc1cccc(OCc2ccc(Br)cc2)c1.O=C(O)C(F)(F)F` showed an Activity in data set [1] of 100 µM. Moreover, the IC50 result in data set [2] is “Not Active”.

For `Cc1ccc(COc2cccc(C(=N)N)c2)cc1`, the Activity in data set [1] stood at 100 µM. Moreover, the IC50 result in data set [2] was “Not Active”.

Take `N=C(N)c1cccc(OCc2ccccc2)c1`: the Activity in data set [1] amounted to 100 µM. The IC50 result in data set [2] was “Not Active”.

Turning to `N=C(N)c1cccc(OCc2ccc(OCc3ccccc3)cc2)c1`, the Activity in data set [1] stood at 100 µM. Besides, in data set [2], the IC50 entry is on record as “Not Active”.

For the molecule `N=C(N)Nc1cccc(OCc2ccc(Cl)cc2)c1.O=C(O)C(F)(F)F`, in data set [1], the Activity is 100 µM. Moreover, the IC50 result in data set [2] is “Not Active”.
